From the METLIN SMRT retention time set (Domingo-Almenara et al. 2019) come the findings set out here.

The nature of the series: gradient 5% acetonitrile 3 min, to 50% in 2 min, to 85% in 15 min, held 3 min, 100 µL/min. Conditions: column: Zorbax Extend-C18 2.1 x 50 mm; eluents: water / acetonitrile, 0.1% formic acid. In a few lines: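 Retention times of pure standards were taken from adduct peaks that were selected by computer and manually inspected. Over 3 months, mixtures of ~100 molecules were run by HPLC–quadrupole time-of-flight mass spectrometry in positive and negative ionization mode. The Zorbax Extend-C18 column (2.1 × 50 mm, 1.8 μm) ran at 100 μL/min in water and acetonitrile, each containing 0.1% formic acid, with 40 μL dead volume and 900 μL dwell volume.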
`Cc1cc2[nH]c(C(=O)Nc3cc(F)cc(F)c3)c(CN3CCOCC3)c2s1` had an RP-LC retention time of 738 s.
The same measure for `CCC(=O)NCCc1csc(C2CCCN(C(=O)C3CCC3)C2)n1` (stereo not given): 676 s; for `COc1ccc(N2CCN(C(=O)c3cn(-c4cc(N5CCCCC5)ncn4)cn3)CC2)cc1`: 817 s; for `CN1CCN(CCCNC(=O)CCCn2c(=O)c3cccn3c3ccc(F)cc32)CC1`: 582 s.
The same measure for `COc1cccc(NC(=O)c2cc(C(C)C)n3nccc3n2)c1`: 1070 s; for `O=C(NCC(O)c1cccc2ccccc12)c1ccccc1C(F)(F)F` (stereo not given): 814 s; for `CC(C)NC(=O)N1CCOc2ccccc21`: 774 s.
The same measure for `CC(C)n1c(=O)sc2cc(S(=O)(=O)N3CCC(C(=O)Nc4cccc(C#N)c4)CC3)ccc21`: 697 s; for `CCc1nnc(-c2nnc(N(CC)CC)c3ccccc23)o1`: 859 s.
`COc1ccc(-c2nnc(Cc3nc(-c4ccc(F)cc4)no3)o2)cc1OC` displayed an RP-LC retention time of 907 s.
The same measure for `CCOc1cc(N2CCN(C(=O)c3cc(Cl)ccc3OC)CC2)nc(C)n1`: 610 s; for `COc1cccc(-c2noc(Cc3nnc(-c4cc(C)cc(C)c4)o3)n2)c1OC`: 1060 s.
`O=C(Cc1cccs1)N1CCC(c2nc(-c3ccccc3)no2)C1` (stereo not given) showed an RP-LC retention time of 883 s.
As to `CCOC(=O)CSc1nnc2n1CCN2c1ccc(OC)cc1`, the RP-LC retention time was determined as 707 s.
The same measure for `CC(C)Cc1cc(-c2nnc3sc(COc4ccccc4Cl)nn23)n[nH]1`: 941 s; for `O=C(NCCCOc1cccc2cccnc12)c1ccc(F)cc1Cl`: 580 s; for `CCOC(=O)c1nc(NCC2CCN(Cc3cccc(F)c3)CC2)c2ccccc2n1`: 605 s.
With `COc1ccc(C(=O)Nc2ccc3c(c2)Sc2ncccc2C(=O)N3C)c(OC)c1` the figure was 706 s.
In the case of `Cn1c(CCNC(=O)c2ccc(F)c(F)c2)nc2cccnc21`, the RP-LC retention time is 617 s.
With `CCOc1ccc(-c2cn3ccn(-c4ccc(Br)cc4)c(=O)c3n2)cc1` the figure was 931 s.
`Cc1ccc(N2CC(c3noc(-c4ccco4)n3)CC2=O)cc1` (stereo not given) displayed an RP-LC retention time of 877 s.
With `O=C(NCCCn1c(-c2ccncc2)nc2cccnc21)Nc1cccc(C(F)(F)F)c1` the figure was 725 s.
The same measure for `CCc1noc(NC(C)=O)c1-c1ccc(C)c(S(=O)(=O)N2CCCCC2)c1`: 879 s; for `CC1(C)C(=O)Nc2ccc(S(=O)(=O)N3CCC(c4noc(-c5cccnc5)n4)C3)cc21` (stereo not given): 722 s.
The same measure for `O=C(NC1CCCCC1)N1CCC2(CC1)NCc1ccccc1-n1ccnc12`: 608 s; for `COC(=O)CC(=O)Nc1cc2c(cc1N1CCOCC1)n(C)c(=O)n2C`: 597 s; for `CC(C)OC(=O)COC(=O)c1cn(-c2ccc(F)cc2)c(=O)c2ccccc12`: 1090 s.
With `Cc1noc(C)c1CC(=O)N1CCOc2ccc(NC(=O)C3CC3)cc2C1`, the RP-LC retention time is 676 s.
With `COc1ccc(NC(=O)Cn2c(=O)n(-c3ccc(F)cc3)c(=O)c3c2cc(C)n3C)c(OC)c1` the figure was 832 s.
The same measure for `CCC(C)NC(=O)NC1CCN(c2nc3cccnc3n(Cc3ccc(C)cc3)c2=O)CC1` (stereo not given): 1040 s; for `COc1c(C(=O)NC(C)C)sc2ccc(Cl)cc12`: 1060 s.
The compound `O=C(NCCc1ccsc1)C(=O)Nc1cccc(N2CCCCC2=O)c1` yielded an RP-LC retention time of 719 s.
The same measure for `Cc1cccc(-c2ncccc2CNS(=O)(=O)c2ccc(Cl)cc2)c1`: 778 s; for `CCOC(=O)c1cccc(NC(=O)c2sccc2S(=O)(=O)N(C)c2ccc(OCC)cc2)c1`: 1220 s.
For `COC(=O)c1ccc2nc(NC(=O)c3cc(Cl)ccc3Cl)sc2c1`, the RP-LC retention time amounted to 965 s.
With `COc1ccc(Cn2nc3c(S(=O)(=O)N4CCCCCC4)cccn3c2=O)cc1F` the figure was 941 s.
With `COc1ccc(OC)c(NC(=O)c2cc(S(=O)(=O)N3CCC(C)CC3)cn2C)c1` the figure was 1060 s.
Compound `COc1cccc(CCNC(=O)C2CCCN(c3ncnc4c3nc3n4CCCCC3)C2)c1OC` (stereo not given) gave an RP-LC retention time of 758 s.
With `Cc1ccnc(NS(=O)(=O)c2ccc(N)cc2)n1` the figure was 652 s; with `COc1cc(C(=O)Nc2noc3ncccc23)cc(OC)c1OC`, 620 s.
On to `CC1CN(CC(=O)NCc2ccc3c(c2)OCO3)c2ccccc2S1` (stereo not given), for which the RP-LC retention time is 967 s.
`Cc1cnc(C(=O)N2CCC(N3C(=O)C(OCC4CC4)C34CCOCC4)CC2)cn1` (stereo not given) displayed an RP-LC retention time of 618 s.
`Cc1nc(-c2cn(C(C)C)c3ncccc23)sc1C(=O)NCc1cccs1`: the RP-LC retention time stood at 970 s.
The same measure for `CN(C)c1ccc(-c2nc3ccc(Cl)cn3c2Nc2ccc3c(c2)OCO3)cc1`: 764 s; for `O=C(CSc1nccn1Cc1ccco1)Nc1ccccc1C(F)(F)F`: 637 s.
The same measure for `O=C1COc2ccc(-c3csc(NC(=O)C4CCCO4)n3)cc2N1` (stereo not given): 715 s; for `Cc1cccc(NC(=O)CSc2nnc(C)s2)c1`: 715 s; for `COC(=O)c1cnc(N2CCN(c3ccccc3OC)CC2)c2ccccc12`: 1030 s.
The same measure for `O=C(c1ccc[nH]1)N1CCC2(CC1)N=C(c1ccc(Cl)cc1)NO2`: 776 s; for `COc1cc(OC)cc(-c2nc(-c3cccc(-c4ccn[nH]4)c3)no2)c1`: 1010 s; for `O=C1NC2(CCN(C(=O)c3ccccc3Cl)CC2)N=C1c1cccc(F)c1`: 776 s.
The compound `Cc1cccc(N2C=C(C(=O)N3CCOCC3)S(=O)(=O)c3ccc(Cl)cc32)c1` returned an RP-LC retention time of 868 s.
`COCCOC1CCN(C(=O)Nc2ccc3c(c2)OCCO3)CC1` came in with an RP-LC retention time of 668 s.
The compound `COc1ccc(-c2nc(C)cc(C)c2CNC(=O)C2CCCC2)cc1` gave an RP-LC retention time of 638 s.
The same measure for `CCOc1ccc(-c2noc(Cn3nc(-c4ccc(C)c(C)c4)ccc3=O)n2)cc1`: 1230 s; for `COC(=O)c1ccc2c(=O)n(-c3cc(C)cc(C)c3)c(N3CCN(Cc4ccccc4)CC3)nc2c1`: 770 s; for `COC(=O)c1ccc(C2CC(=O)NC3=C2C(=O)CC(C)(C)C3)cc1` (stereo not given): 675 s.
With `O=C(Cc1nnc(-c2ccc3ncccc3c2)o1)Nc1ccc(F)cc1Cl` the figure was 730 s.
`CCn1cc(CC(=O)NCc2ccc(F)cc2)c2cccnc21` displayed an RP-LC retention time of 708 s.
With `O=C1CCc2cc(NS(=O)(=O)/C=C/c3ccccc3)ccc2N1` the figure was 681 s.
`Cc1ccc(CNc2nc(-c3ccc(Cl)cc3)nc3ccccc23)o1`: the RP-LC retention time came to 865 s.
On to `Cc1nc(-c2ccc(N3CCN(C(=O)COc4ccc(Cl)cc4)CC3)nc2)sc1C`, for which the RP-LC retention time turned out to be 949 s.
As for `COc1ccc(C)cc1NC(=O)N1CC(c2nc(C)no2)C2(CCOCC2)C1` (stereo not given), the RP-LC retention time was determined as 753 s.
In the case of `COc1ccccc1-c1nc(Cn2nnc(-c3nc(-c4ccc5c(c4)OCO5)no3)c2C)c(C)o1`, the RP-LC retention time is 700 s.
In the case of `COc1ccccc1OCC1c2ccsc2CCN1C(=O)CN(CC1CC1)C(=O)C1CC1` (stereo not given), the RP-LC retention time is 928 s.
`CCc1cc(=O)n(CC(=O)Nc2cc(F)ccc2F)c(-c2ccccc2)n1` returned an RP-LC retention time of 1180 s.
As to `COC[C@@H]1CN(Cc2ccc(OC)cc2OC)C[C@H]1c1ccncc1`, the RP-LC retention time worked out at 590 s.
With `O=C(Cn1c(=O)oc2ccc(C(=O)N3CCCC3)cc21)N1CCN(c2cccc(Cl)c2)CC1` the figure was 842 s.
As to `CC(C)NC(=O)C1CCc2sc(C(=O)N3CCOCC3)cc2C1` (stereo not given), the RP-LC retention time worked out at 596 s.
The compound `O=C(COc1ccc(Cl)cc1)NCC1(O)CCOCC1` registered an RP-LC retention time of 623 s.
The same measure for `COCCC(=O)N1CCN(c2ncccc2-c2nnc(C(C)C)o2)CC1`: 666 s; for `O=C(NCCN1CCCCCC1)c1nc(-c2ccnc(N3CCCCC3)c2)no1`: 577 s; for `Nc1cc(C2CCN(S(=O)(=O)c3ccc(Cl)cc3)CC2)no1`: 826 s.
The same measure for `Cc1ccc(CNC(=O)CCCN2C(=O)CCn3nc(-c4cn(C)c5ccccc45)cc32)o1`: 815 s; for `CCCCNC(=O)C(C)n1nc(C)c2c(C)n(-c3ccccc3)nc2c1=O` (stereo not given): 787 s; for `CC(C)N1CCCn2cc(S(=O)(=O)NC3CCCCCC3)cc2C1=O`: 817 s.
With `CCn1cc(S(=O)(=O)NCc2ccccc2F)c2cccnc21` the figure was 799 s.
`O=C(NCc1ccccc1)Nc1cccc(-c2ccc(N3CCOCC3)nn2)c1` came in with an RP-LC retention time of 672 s.
`CCOc1ccc2nc(NC(=O)Cc3csc4nc(-c5ccc(OC)c(OC)c5)cn34)sc2c1` yielded an RP-LC retention time of 784 s.
With `CCC(C)C(NC(=O)c1cc(C)cc(C)c1)C(=O)Nc1nc2ccccc2[nH]1` (stereo not given) the figure was 799 s.
